Results taken from patent publication US7902361B2, “Pyrimidin-4-yl-3, 4-thione compounds and their use in therapy” (Cyclacel Limited, priority 2003, dated 2011).
Read-outs that look alike come from different tables or passages of the source. Marks after values point to notes of the source that are not given here.

How the values were obtained:
CDK2/cyclin A = CDK2/cyclin A (Homo sapiens, UniProt P24941); experiment: Kinase assay CDK2/cyclin A; type: biochemical; settings: Ki calculated (Cheng-Prusoff) from experimentally determined IC50 and Km,ATP; read-out: Kinase Inhibition Ki CDK2 - cyclin A
Outline: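 Radiometric assays measured transfer of radioactive phosphate from ATP onto polypeptide substrates, using 2-4 μg recombinant active enzyme in buffer typically containing 25 mM β-glycerophosphate, 20 mM MOPS, 5 mM EGTA, 1 mM DTT and 1 mM Na3VO3 at pH 7.4. Reactions were stopped on ice, filtered on P81 or GF/C plates and washed with orthophosphoric acid. Incorporated radioactivity was scintillation-counted.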

[1] = Oral glucose tolerance in male ZDF fa/fa rats; type: in vivo, rat; settings: for % Glucose Decrease AUC (−270–180 min) / % Glucose decrease-AUC (0–180 min): ZDF fa/fa rats, oral glucose tolerance, 30 mg/kg per os twice (−270 and −30 min)
Protocol: (§1) The ability of example compounds of the present invention to improve glucose metabolism was tested in 12-13 week old male ZDF fa/fa rats. The test animals (10-15 mmol/L fasting glucose level) were dosed twice at 30 mg/kg and the glucose challenge was given at time 0. […] Most of these blood levels were below the EC50 values determined in cellular assays.
(§2) 12-13 weeks old male ZDF fa/fa rats were used to study the effect of example compounds on oral glucose tolerance. […] Body weight was recorded three times per week. Test compounds were dissolve in a formulation of 10% DMSO, 5% Tween, 5% Span 20, 30% PEG 400 and 50% water (v/v) to provide final solutions at 5 mg/mL concentration. Each experimental group contained 7 animals. After an 16 h overnight fast the test compounds were administered at 30 mg/kg per os twice (at −270 min and −30 min) before the oral glucose tolerance test was commenced (2 g glucose/kg per os as a 40% solution introduced via feeding tube). A control group was dosed in a similar manner with the vehicle only. Blood sampling for blood glucose measurement (20 μL blood) was performed at −270, 0, 15, 30, 60, 90, 120 and 180 min. Mixed venous blood was collected from the tail vein into 20-μL glass capillaries, which were placed in a standard tube filled with 1 mL solution for hemolysis. Glucose levels were measured using the glucose oxidase procedure (Super G Glukosemessgeraet; Dr Mueller Geraetebau, Freital, Germany). In addition, 50 μL blood samples were taken at 30 and 60 min after the glucose dose, placed in heparinized tubes, which were then frozen immediately in liquid nitrogen. The bioanalytical method used employed isocratic elution liquid chromatography—tandem mass spectrometry in electrospray positive ion multiple reaction monitoring mode.

[2] = Blood levels of test compounds in ZDF fa/fa rats; type: in vivo, rat; settings: 30 mg/kg per os twice; for concentration at 30 min / concentration at 60 min: male, rat, whole blood, oral; for concentration at 30 min / concentration at 60 min / Average Blood levels: ZDF fa/fa rats; for oral bioavailability (blood levels at 30 and 60 min after the glucose load): male ZDF fa/fa rats
Protocol: as §1, §2

glycogen synthase = experiment: Glycogen synthase activation in HEK293 cells; type: cell-based; settings: for Max FI (% to LiCl): maximum fold induction normalised to 40 mM LiCl
Protocol: HEK293 cells, mouse adipocytes or rat myotubes were treated in 10-cm Petri dishes with different concentrations of GSK3 inhibitor example compounds for 90 minutes. At the end of the treatment period the cells were washed and scraped in ice cold PBS buffer supplemented with 20 mM NaF. The cells were pelleted by centrifugation and lysed in 300 μL buffer (50 mM.HEPES pH 7.5, 10 mM EDTA, 100 mM NaF, 5 mM DTT, protease inhibitor cocktail (Sigma)). After incubation for 30 min on ice the samples were cleared by centrifugation. The activity of glycogen synthase was determined in the soluble fraction at two different concentrations of […]—low (0.1 mM) and high (10 mM). The reaction was carried out for 30 min (buffer: 50 mM Tris pH 7.8, 20 mM EDTA, 25 mM NaF, 5 mM DTT). The reaction mixture (total volume of 90 μL) contained 1% glycogen, 0.3 mM UDP-glucose and 0.06 μCi ^14C-UDP-glucose. Reaction was stopped by transfer of 70 μL to a GFC 96-well filter plate, containing 140 μL 100% ethanol and the glycogen was allowed to precipitate for 1 h at 4° C. The wells were washed 2 times with 200 μL 66% ethanol and than allowed to dry. Subsequently, 100 μL of scintillation liquid was added, and plates were sealed and counted in a Packard Topcounter. Glycogen synthase activation was calculated as the ratio between the incorporation of labelled ^14C-UDP-glucose in glycogen at low and high concentration of […] (fractional velocity).
The ability of GSK3 inhibitors to activate glycogen synthase was determined in HEK293 cells, mouse adipocytes and rat myotubed. The compounds tested activated glycogen synthase in all three cellular systems with EC50 values in the sub-micromolar to low micromolar concentration range. Most of them exceeded the stimulation induced by 40 mM LiCl (the highest compound concentration used in the assay was 20 μM).

DYRK1A = target: T1, DYRK1A (Homo sapiens, UniProt Q13627); experiment: DYRK1A in vitro kinase assay; type: biochemical; settings: recombinant human DYRK1A, 100 μM ATP
T1 construct: purchased Upstate
Description: Dual specificity tyrosine phosphorylation regulated kinase 1A (DYRK1A) has been proposed, amongst other functions, to play a role in the regulation of glycogen metabolism in a way similar to GSK3. Some of the example compounds of the present invention were screened against recombinant human DYRK1A in vitro and the determined IC50 values are shown in Table 9. According to our current knowledge inhibition of DYRK1A will have additional positive effect on stimulation of glycogen synthase.
A 10-point titration was set up to determine the IC50 values of selected example compounds against DYRK1A. Assays were performed using 96-well microtiter plates and a final volume of 25 μL/well. Each assay contained 2.3 milliunits of DYRK1A (Upstate), 50 μM Woodtide peptide ([…], Upstate), 20 mM Tris HCl pH 8.0, 10 mM DTT, 5 mM EGTA, 1 mM NaVO3, 31 mM β-glycerophosphate, 15 mM MgCl2 supplemented with 100 μM ATP and 0.5 μCi of [γ-^32P] ATP plus or minus inhibitor in 2% DMSO. Assays were carried out for 60 minutes at 30° C. before stopping the reaction by the addition of an equal volume of 75 mM aqueous phosphoric acid. Samples were then spotted onto a p81 filterplate (Whatman) and a vacuum applied. Wells were washed 3 times with 200 μL of dilute aqueous phosphoric acid before the addition of 50 μL Microscint 40 per well. Incorporation of radioactivity was determined on a Topcount microplate scintillation counter (Packard).

[3] = male ZDF fa/fa rats, 30 mg/kg per os twice, oral glucose tolerance test

| SMILES | Ki (CDK2/cyclin A) | concentration at 30 min ([2]; time 30 min) | concentration at 60 min ([2]; time 60 min) | EC50 (glycogen synthase; Homo sapiens) | IC50 (DYRK1A) | oral bioavailability (blood levels at 30 and 60 min after the glucose load) [2] | % Glucose Decrease AUC (−270–180 min) [1] | % Glucose decrease-AUC (0–180 min) [1] | Max FI (% to LiCl) (glycogen synthase) | glucose AUC [1, 3] | decreased blood glucose levels [1, 3] | Average Blood levels ([2]; time 30 min) | Average Blood levels ([2]; time 60 min) | EC50 (glycogen synthase) |
| --- | --- | --- | --- | --- | --- | --- | --- | --- | --- | --- | --- | --- | --- | --- |
| CC(=O)Nc1cc(Nc2nccc(-c3sc(=O)n(C)c3C)n2)cc(C(F)(F)F)c1 [Compound 64, N-{3-[4-(3,4-Dimethyl-2-oxo-2,3-dihydro-thiazol-5-yl)-pyrimidin-2-ylamino]-5-trifluoromethyl-phenyl}-acetamide] |  | 248 ng/mL | 268 ng/mL | 49 ± 70 nM | 77 nM | some oral bioavailability | 9% | 8% | 107 % to LiCl | moderate decrease |  |  |  |  |
| Cc1c(-c2ccnc(Nc3cc(Br)cc(C(F)(F)F)c3)n2)sc(=O)n1C [Compound 68, 5-[2-(3-Bromo-5-trifluoromethyl-phenylamino)-pyrimidin-4-yl]-3,4-dimethyl-3H-thiazol-2-one] |  | 115 ng/mL | 70.1 ng/mL | 8340 ± 1880 nM | 73 nM | some oral bioavailability | 5% | 8.4* % | 96 % to LiCl | moderate decrease | statistically significant |  |  |  |
| CNc1cc(Nc2nccc(-c3sc(=O)n(C)c3C)n2)cc(C(F)(F)F)c1 [Compound 76, 3,4-Dimethyl-5-[2-(3-methylamino-5-trifluoromethyl-phenylamino)-pyrimidin-4-yl]-3H-thiazol-2-one] |  |  |  |  | 148 nM |  | 0% | 0.5% | 88 % to LiCl |  |  | 43.0 ng/mL | 48.1 ng/mL | 444 ± 178 nM |

Now from value to compound, other results behind:

| Ki (CDK2/cyclin A) | concentration at 30 min ([2]; time 30 min) | concentration at 60 min ([2]; time 60 min) | EC50 (glycogen synthase; Homo sapiens) | IC50 (DYRK1A) | oral bioavailability (blood levels at 30 and 60 min after the glucose load) [2] | SMILES | % Glucose Decrease AUC (−270–180 min) [1] | % Glucose decrease-AUC (0–180 min) [1] | Max FI (% to LiCl) (glycogen synthase) | glucose AUC [1, 3] | decreased blood glucose levels [1, 3] | Average Blood levels ([2]; time 30 min) | Average Blood levels ([2]; time 60 min) | EC50 (glycogen synthase) |
| --- | --- | --- | --- | --- | --- | --- | --- | --- | --- | --- | --- | --- | --- | --- |
| 610 nM | 27.6 ng/mL | 29.7 ng/mL | 684 ± 133 nM | 51 nM |  | CCNS(=O)(=O)c1cccc(Nc2nccc(-c3sc(=O)n(C)c3C)n2)c1 [Compound 62, 3-[4-(3,4-Dimethyl-2-oxo-2,3-dihydro-thiazol-5-yl)-pyrimidin-2-ylamino]-N-ethyl-benzenesulfonamide] | 9% | 3.6% | 117 % to LiCl |  |  |  |  |  |
| 1300 nM | 350 ng/mL | 271 ng/mL | 3720 ± 2500 nM | 19 nM | some oral bioavailability | COCCNS(=O)(=O)c1cccc(Nc2nccc(-c3sc(=O)n(C)c3C)n2)c1 [Compound 67, 3-[4-(3,4-Dimethyl-2-oxo-2,3-dihydro-thiazol-5-yl)-pyrimidin-2-ylamino]-N-(2-methoxy-ethyl)-benzenesulfonamide] | 14% | 7.5% | 85 % to LiCl | moderate decrease |  |  |  |  |
| 410 nM |  |  | 5170 ± 2200 nM | 26 nM |  | Cc1c(-c2ccnc(Nc3cccc(S(=O)(=O)NCCO)c3)n2)sc(=O)n1C [Compound 75, 3-[4-(3,4-Dimethyl-2-oxo-2,3-dihydro-thiazol-5-yl)-pyrimidin-2-ylamino]-N-(2-hydroxy-ethyl)-benzenesulfonamide] | 13% | 6.4% | 108 % to LiCl |  |  |  |  |  |
